Literature values in patent publication US7857962B2, “Potentiometric electrode, gradient polymer, uses and method of preparation therefor” (Universiteit Antwerpen, priority 2004, dated 2010).

Settings: basic drugs named for comparison
In the case of `Nc1c(Br)cc(Br)cc1CN[C@H]1CC[C@H](O)CC1` [ambroxol, reference compound], the “log P” value is listed as 3.24. For `CN(Cc1cc(Br)cc(Br)c1N)C1CCCCC1` [bromhexine, reference compound], the “log P” value is listed as 4.03. In the case of `CC(C)(C)NCC(O)c1cc(Cl)c(N)c(Cl)c1` (centres unmarked) [clenbuterol, reference compound], the “log P” value is given as 2.91.

Same assay, conditions: organic acid analytes; n-octanol/water
For `O=C(O)/C=C/C(=O)O` [Fumaric, fumaric acid], the “Log P” value is listed as “+0.49”. For `CC(O)C(=O)O` (centres unmarked) [Lactic, lactic acid], the “Log P” value is listed as −1.31. In the case of `O=C(O)CC(O)C(=O)O` (centres unmarked) [Malic, malic acid], the “Log P” value is given as −1.22. For `O=C(O)CCC(=O)O` [Succinic, succinic acid], the “Log P” value is given as −1.11. In the case of `O=C(O)C(O)C(O)C(=O)O` (centres unmarked) [Tartaric, tartaric acid], the “Log P” value is given as −1.39.
